The target of experiment [1] is dephosphorylated BTK (Homo sapiens (Human), UniProt Q06187). Nature of the experiment: BTK Activity Inhibition Test (mobility shift assay). The following applies: 200 μM ATP, read-out: Inhibitory Activity on BTK. Format: biochemical. The method, then:
Dephosphorylated BTK was obtained by adding λ protein phosphatase (manufactured by New England BioLabs Inc., Code No. P0753S) and MnCl2 at 10 U/μg and 2 mM, respectively, to biotinylated BTK protein BTN-BTK (Manufactured by Carna Biosciences, Inc.) enzyme solution, reacting the mixture at 4° C. overnight, and removing of λ protein phosphatase by anti […]-tag antibody agarose gel chromatography, followed by buffer exchange using a 10DG Desalting Column.
The kinase activity was measured using QuickScout Screening Assist (trade mark) MSA (commercially available kit manufactured by Carna Biosciences, Inc.) by mobility shift assay (MSA) method. The substrate of the kinase reaction was an FITC-labeled SRCtide peptide included in the kit. An assay buffer [20 mM HEPES, 0.01% Triton X-100 (Trade mark), 2 mM dithiothreitol, pH 7.5] was used and adjusted at 4 μM substrate, 20 mM MgCl2 and 200 μm ATP to obtain a substrate mixture solution. The enzyme solution was also prepared by diluting the dephosphorylated BTK to 0.46 nM using the assay buffer. The 10 mM solution of the test compound in DMSO was further diluted with DMSO to 10 levels of the concentration (0.00003 mM, 0.0001 mM, 0.0003 mM, 0.001 mM, 0.003 mM, 0.01 mM, 0.03 mM, 0.1 mM, 0.3 mM, 1 mM), each of which was subjected to a 25-fold dilution with the assay buffer to obtain the drug solutions (4% DMSO solutions). 5 μL of the drug solution or a control solution (4% DMSO-assay buffer), 5 μL of the substrate mixture solution, and 10 μL of the enzyme solution were mixed in the wells of a polypropylene 384-well plate and allowed to react at room temperature for 2 hours, and then quenched by adding 60 μL of the termination buffer included in the kit. Subsequently, the quantities of the substrates (S) and the phosphorylated substrate (P) in the reaction solution were measured using LabChip EZ Reader II system (manufactured by Caliper Life Sciences) according to the protocol of the assay kit.
(§1) The heights of the peaks of the isolated substrate and the phosphorylated substrate were represented as S and P, respectively, and a blank which contained the assay buffer instead of the enzyme solution was also measured.
(§2) The inhibition rate (%) of the test compound was calculated according to the following equation; Inhibition rate (%)=(1−(C−A)/(B−A))×100 • wherein, A, B and C represent P/(P+S) of the blank well, P/(P+S) of the control well and P/(P+S) of the compound-containing well, respectively.
(§3) The IC50 value was calculated via a regression analysis of the inhibition rate (%) and the test compound concentration (logarithmic value).

The target in experiment [2] is wild type BTK [BTK(WT)] (Homo sapiens (Human), UniProt Q06187). The experiment can be described thus: C481S Mutant BTK Inhibitory Activity Test, wild type BTK (mobility shift assay). Format: biochemical. Particulars: 120 μM ATP. As to the method:
(§4) The kinase activity was measured using QuickScout Screening Assist (trademark) MSA (commercially available kit manufactured by Carna Biosciences, Inc.) by mobility shift assay (MSA) method. The substrate of the kinase reaction was an FITC-labeled SRCtide peptide included in the kit. […] The 10 mM solution of the test compound in DMSO was further diluted with DMSO to 10 levels of the concentration (0.00003 mM, 0.0001 mM, 0.0003 mM, 0.001 mM, 0.003 mM, 0.01 mM, 0.03 mM, 0.1 mM, 0.3 mM, 1 mM), each of which was subjected to a 25-fold dilution with the assay buffer to obtain the drug solutions (4% DMSO solutions).
(§5) 5 μL of the drug solution or a control solution (4% DMSO-assay buffer), 5 μL of the substrate mixture solution, and 10 μL of the enzyme solution were mixed in the wells of a polypropylene 384-well plate and allowed to react at room temperature for 1 hour, and then quenched by adding 60 μL of the termination buffer included in the kit. Subsequently, the quantities of the substrates (S) and the phosphorylated substrate (P) in the reaction solution were measured using LabChip EZ Reader II system (manufactured by Caliper Life Sciences) according to the protocol of the assay kit.
as §1, §2, §3

The target in experiment [3] is C481S mutant BTK [BTK(C481S)] (Homo sapiens (Human), UniProt Q06187, C481S). Nature of the experiment: C481S Mutant BTK Inhibitory Activity Test (mobility shift assay). It is filed as biochemical. Particulars: for IC50: C481S mutant BTK, 100 μM ATP; for C481S mutation-resistance: IC50[BTK(C481S)]/IC50[BTK(WT)]. The method, then:
as §4, §5, §1, §2, §3

Experiment [4] has as its system OCI-Ly10 cells. The experiment can be described thus: Proliferation-Inhibitory Test Against Diffuse Large-Cell B-Cell Lymphoma OCI-Ly10 Strain. Format: cell-based. Particulars: Homo sapiens, 96 hours, alamarBlue. Put shortly: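 In IMDM with 20% FBS, OCI-Ly10 cells (20000 cells/well) were exposed to compound at 0.9 nM to 30000 nM (0.3% DMSO final) for 96 hours. Viability was then read with alamarBlue reagent.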
(Alamar Blue is a resazurin reagent that responds to reducing activity.)

dephosphorylated BTK, sequence (Q06187 whole entry): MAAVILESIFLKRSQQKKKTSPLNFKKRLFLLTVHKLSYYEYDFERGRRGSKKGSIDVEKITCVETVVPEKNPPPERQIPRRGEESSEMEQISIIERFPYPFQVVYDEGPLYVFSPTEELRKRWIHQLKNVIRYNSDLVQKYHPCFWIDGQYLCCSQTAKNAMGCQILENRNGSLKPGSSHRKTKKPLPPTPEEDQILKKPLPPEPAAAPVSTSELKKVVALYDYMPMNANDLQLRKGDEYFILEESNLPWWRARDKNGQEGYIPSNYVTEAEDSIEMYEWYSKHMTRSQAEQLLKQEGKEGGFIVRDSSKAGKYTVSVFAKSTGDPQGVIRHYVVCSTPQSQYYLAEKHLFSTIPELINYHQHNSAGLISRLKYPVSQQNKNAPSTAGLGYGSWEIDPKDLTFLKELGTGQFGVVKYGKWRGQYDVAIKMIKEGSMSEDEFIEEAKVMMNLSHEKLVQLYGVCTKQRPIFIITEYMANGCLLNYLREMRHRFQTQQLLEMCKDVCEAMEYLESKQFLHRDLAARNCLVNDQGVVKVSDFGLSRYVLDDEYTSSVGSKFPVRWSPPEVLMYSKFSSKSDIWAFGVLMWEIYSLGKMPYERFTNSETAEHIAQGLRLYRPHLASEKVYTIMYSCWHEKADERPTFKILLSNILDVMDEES
wild type BTK [BTK(WT)], sequence (Q06187 whole entry): as above
C481S mutant BTK [BTK(C481S)], sequence (Q06187 whole entry C481S): as the sequence (Q06187 whole entry) above, with C481S counted along it

Consider `CS(=O)(=O)c1ccc(-c2cc3c(-c4cccc(-n5ccc6cc(C7CC7)cc(F)c6c5=O)c4CO)nc(N)nc3[nH]2)cc1` [Example 41, 2-(3-{2-amino-6-[4-(methylsulfonyl)phenyl]-7H-pyrrolo[2,3-d]pyrimidin-4-yl}-2-(hydroxymethyl)phenyl)-6-cyclopropyl-8-fluoroisoquinolin-1(2H)-one], for which the IC50 in experiment [1] is under 10 nM; in experiment [2], 0.73 nM; in experiment [3] it was 1.03 nM; in experiment [4], 17 nM. Further, the C481S mutation-resistance in experiment [3] is 1.4.

For `Nc1nc(-c2cccc(-n3ccc4cc(C5CC5)cc(F)c4c3=O)c2CO)c2cc(-c3cccc(F)n3)[nH]c2n1` [Example 42, 2-{3-[2-amino-6-(6-fluoropyridin-2-yl)-7H-pyrrolo[2,3-d]pyrimidin-4-yl]-2-(hydroxymethyl)phenyl}-6-cyclopropyl-8-fluoroisoquinolin-1(2H)-one], the IC50 in experiment [1] was under 10 nM; in experiment [2], 0.87 nM; in experiment [3] it was 1.06 nM; in experiment [4] it was 97 nM. Besides, in experiment [3], the C481S mutation-resistance is 1.2.

As for `Nc1nc(-c2cccc(-n3ccc4cc(C5CC5)cc(F)c4c3=O)c2CO)c2cc(-c3ccnc(F)c3)[nH]c2n1` [Example 43, 2-{3-[2-amino-6-(2-fluoropyridin-4-yl)-7H-pyrrolo[2,3-d]pyrimidin-4-yl]-2-(hydroxymethyl)phenyl}-6-cyclopropyl-8-fluoroisoquinolin-1(2H)-one], the IC50 in experiment [1] was under 10 nM; in experiment [2] it was 1.11 nM; in experiment [3], 1.72 nM; in experiment [4] it was 194 nM. In addition, the C481S mutation-resistance in experiment [3] is listed as 1.5.

On to `CN(C)Cc1ccc(-c2cc3c(-c4cccc(-n5ccc6cc(C7CC7)cc(F)c6c5=O)c4CO)nc(N)nc3[nH]2)cc1` [Example 51, 2-[3-(2-amino-6-{4-[(dimethylamino)methyl]phenyl}-7H-pyrrolo[2,3-d]pyrimidin-4-yl)-2-(hydroxymethyl)phenyl]-6-cyclopropyl-8-fluoroisoquinolin-1(2H)-one], for which the results for the IC50 in experiment [2], in experiment [3] and in experiment [4] were 0.43 nM, 0.78 nM and 10 nM, respectively. Besides, the C481S mutation-resistance in experiment [3] was determined as 1.8.

Take `CCN(CC)Cc1ccc(-c2cc3c(-c4cccc(-n5ccc6cc(C7CC7)cc(F)c6c5=O)c4CO)nc(N)nc3[nH]2)cc1` [Example 52, 2-[3-(2-amino-6-{4-[(diethylamino)methyl]phenyl}-7H-pyrrolo[2,3-d]pyrimidin-4-yl)-2-(hydroxymethyl)phenyl]-6-cyclopropyl-8-fluoroisoquinolin-1(2H)-one]: the IC50 in experiment [2] came to 0.43 nM; in experiment [3] it was 0.76 nM; in experiment [4] it was 15 nM. In experiment [3], the C481S mutation-resistance was 1.8.

As to `Nc1nc(-c2cccc(-n3ccc4cc(C5CC5)cc(F)c4c3=O)c2CO)c2cc(-c3ccc(CN4CCNC(=O)C4)cc3)[nH]c2n1` [Example 66, 2-[3-(2-amino-6-{4-[(3-oxopiperazin-1-yl)methyl]phenyl}-7H-pyrrolo[2,3-d]pyrimidin-4-yl)-2-(hydroxymethyl)phenyl}-6-cyclopropyl-8-fluoroisoquinolin-1(2H)-one], the IC50 in experiment [2] came out at 0.47 nM; in experiment [3], 0.93 nM; in experiment [4], 18 nM. For the same molecule, the C481S mutation-resistance in experiment [3] is recorded as 2.

Regarding `CNc1cc(-c2cc3c(-c4cccc(-n5ccc6cc(C7CC7)cc(F)c6c5=O)c4CO)nc(N)nc3[nH]2)ccn1` [Example 50, 2-(3-{2-amino-6-[2-(methylamino)pyridin-4-yl]-7H-pyrrolo[2,3-d]pyrimidin-4-yl}-2-(hydroxymethyl)phenyl)-6-cyclopropyl-8-fluoroisoquinolin-1(2H)-one], the IC50 in experiment [2] is 0.77 nM; in experiment [3], 1.6 nM; in experiment [4] it was 52 nM. In addition, in experiment [3], the C481S mutation-resistance came to 2.1.

Turning to `Nc1nc(-c2cccc(-n3ccc4cc(C5CC5)cc(F)c4c3=O)c2CO)c2cc(-c3ccc(CN4CCCCC4)cc3)[nH]c2n1` [Example 54, 2-(3-{2-amino-6-[4-(piperidin-1-ylmethyl)phenyl]-7H-pyrrolo[2,3-d]pyrimidin-4-yl}-2-(hydroxymethyl)phenyl)-6-cyclopropyl-8-fluoroisoquinolin-1(2H)-one], the IC50 was 0.58 nM in experiment [2], 0.86 nM in experiment [3] and 17 nM in experiment [4]. For the same molecule, the C481S mutation-resistance in experiment [3] came to 1.5.

For the origin of these results see patent US10793575B2, “Oxoisoquinoline derivatives” (CARNA BIOSCIENCES, INC., priority 2016, dated 2020).
